Source: US20070072831A1, “Integrase inhibitor compounds” (GILEAD SCIENCES, INC., priority 2005, published 2007)

Legend:
HIV integrase = HIV integrase (Human immunodeficiency virus type 1 group M subtype B, UniProt P04585); assay: biochemical
Description: Representative compounds of the invention were tested for biological activity by methods including anti-HIV assay, measuring inhibition of HIV-integrase strand transfer catalysis, and cytotoxicity.
HIV Integrase Assay (IC50 Determination)
The HIV Integrase assay is carried out in Reacti-Bind High Binding Capacity Streptavidin coated plates (Pierce # 15502) in 100 μl reactions. The wells of the plate are rinsed once with PBS. Each well is then coated at room temperature for 1 h with 100 μl of 0.14 μM Donor DNA with the following sequence:
After coating, the plate was washed twice with PBS. 3′processing of the Donor DNA is started by adding 80 μl of Integrase/buffer mixture (25 mM HEPES, pH 7.3, 12.5 mM DTT, 93.75 mM NaCl, 12.5 mM MgCl2, 1.25% Glycerol, 0.3125 uM integrase) to each well. 3′processing is allowed to proceed for 30 min at 37° C., after which, 10 μl of test compound and 10 μl of 2.5 uM DIG-labeled Target DNA with the following sequence:
are added to each well to allow strand transfer to proceed for 30 min at 37° C. The plate is then washed three times with 2×SSC for 5 min and rinsed once with PBS. For detection of integrated product, 100 μl of a 1/2000 dilution of HRP-conjugated anti-DIG antibody (Pierce #31468) are added to each well and incubated for 1 hour. The plate was then washed three times for 5 min each, with 0.05% Tween-20 in PBS. For signal development and amplification, 100 μl of SuperSignal ELISA Femto Substrate (Pierce #37075) are added to each well. Chemiluminescence (in relative light units) is read immediately at 425 nm in the SPECTRAmax GEMINI Microplate Spectrophotometer using the end point mode at 5 sec per well.
For IC50 determinations, eight concentrations of test compounds in a 1/2.2 dilution series are used.

HIV-IIIb = assay: Antiviral assay in MT-4 cells infected with HIV-IIIb; format: cell-based; settings: MT4, 120 h; MT-4 cells, HIV-IIIb, 5 days; read-out: EC50 Range MT-4
Description: See: Wolfe, etal J. Virol.
Antiviral Assays in MT2 and MT4 Cells
For the antiviral assay utilizing MT-2 cells, 50 μl of 2× test concentration of 5-fold serially diluted compound in culture medium with 10% FBS was added to each well of a 96-well plate (9 concentrations) in triplicate. MT-2 cells were infected with HIV-IIIb at a multiplicity of infection (m.o.i) of 0.01 for 3 hours. Fifty microliters of infected cell suspension in culture medium with 10% FBS (˜1.5×10^4 cells) was then added to each well containing 50 μl of diluted compound. The plates were then incubated at 37° C. for 5 days. For the antiviral assay utilizing MT-4 cells, 20 μl of 2× test concentration of 5-fold serially diluted compound in culture medium with 10% FBS was added to each well of a 384-well plate (7 concentrations) in triplicate. MT-4 cells were next mixed with HIV-IIIb at an m.o.i. of 0.1 and 20 μl of virus/cell mixture (˜2000 cells) was immediately added to each well containing 20 μl of diluted compound. The plates were then incubated at 37° C. for 5 days. After 5 days of incubation, 100 μl of CellTiter-Glo™ Reagent (catalog # G7571, Promega Biosciences, Inc., Madison, Wis.) was added to each well containing MT-2 cells and 40 μl to each well containing MT-4 cells. Cell lysis was carried out by incubating at room temperature for 10 min and then chemiluminescence was read.

| Compound | IC50 (HIV integrase) | EC50 (HIV-IIIb) |
| --- | --- | --- |
| CN(c1c2c(c(O)c3ncccc13)C(=O)N(Cc1c(F)cccc1F)C2)S(C)(=O)=O [Compound 195, N-(7-(2,6-difluorobenzyl)-9-hydroxy-8-oxo-7,8-dihydro-6H-pyrrolo[3,4-g]quinolin-5-yl)-N-methylmethanesulfonamide] | 0.06 to 1 µM | 0.06 to 1 µM |
| CCOC(=O)N(C)c1c2c(c(O)c3ncccc13)C(=O)N(Cc1ccc(F)cc1)C2(C)C [Compound 115, ethyl 7-(4-fluorobenzyl)-9-hydroxy-6,6-dimethyl-8-oxo-7,8-dihydro-6H-pyrrolo[3,4-g]quinolin-5-yl(methyl)carbamate] | 0.06 to 1 µM | > 1 µM |
| COc1cc(F)ccc1CN1Cc2c(c(O)c3ncccc3c2N(C)S(C)(=O)=O)C1=O [Compound 210, N-(7-(4-fluoro-2-methoxybenzyl)-9-hydroxy-8-oxo-7,8-dihydro-6H-pyrrolo[3,4-g]quinolin-5-yl)-N-methylmethanesulfonamide] | 0.06 to 1 µM | < 0.06 µM |
| O=C1c2c(c(N3CCCNC3=O)c3cccnc3c2O)CN1Cc1ccc(F)cc1 [Compound 222, 7-(4-fluorobenzyl)-9-hydroxy-5-(2-oxo-tetrahydropyrimidin-1(2H)-yl)-6,7-dihydropyrrolo[3,4-g]quinolin-8-one] | 0.06 to 1 µM | < 0.06 µM |
| CN1CCCN(c2c3c(c(O)c4ncccc24)C(=O)N(Cc2ccc(F)cc2)C3)S1(=O)=O [Compound 218] | < 0.06 µM | < 0.06 µM |
| CN(c1c2c(c(O)c3ncccc13)C(=O)N(Cc1ccc(F)c(Cl)c1F)C2)S(C)(=O)=O [Compound 199, N-(7-(3-chloro-2,4-difluorobenzyl)-9-hydroxy-8-oxo-7,8-dihydro-6H-pyrrolo[3,4-g]quinolin-5-yl)-N-methylmethanesulfonamide] | 0.06 to 1 µM | < 0.06 µM |
| CN(C)CCCS(=O)(=O)N(C)c1c2c(c(O)c3ncccc13)C(=O)N(Cc1ccc(F)cc1)C2 [Compound 44, N-(7-(4-fluorobenzyl)-9-hydroxy-8-oxo-7,8-dihydro-6H-pyrrolo[3,4-g]quinolin-5-yl)-N-methyl-3-(dimethylamino)-propane-1-sulfonamide] | < 0.06 µM | < 0.06 µM |
| CN(c1c2c(c(O)c3ncccc13)C(=O)N(Cc1ccc(Cl)cc1F)C2)S(C)(=O)=O [Compound 189, N-(7-(4-chloro-2-fluorobenzyl)-9-hydroxy-8-oxo-7,8-dihydro-6H-pyrrolo[3,4-g]quinolin-5-yl)-N-methylmethanesulfonamide] | 0.06 to 1 µM | < 0.06 µM |
| CN(c1c2c(c(OCOC(=O)OC3CCC3)c3ncccc13)C(=O)N(Cc1ccc(F)cc1)C2)S(C)(=O)=O [Compound 31, (7-(4-fluorobenzyl)-5-(N-methylmethan-5-ylsulfonamido)-8-oxo-7,8-dihydro-6H-pyrrolo[3,4-g]quinolin-9-yloxy)methyl cyclobutyl carbonate] | > 1 µM | < 0.06 µM |
| CN(c1c2c(c(O)c3ncccc13)C(=O)N(Cc1ccc(F)cc1N)C2)S(C)(=O)=O [Compound 103, N-(7-(2-amino-4-fluorobenzyl)-9-hydroxy-8-oxo-7,8-dihydro-6H-pyrrolo[3,4-g]quinolin-5-yl)-N-methylmethanesulfonamide] | < 0.06 µM | < 0.06 µM |
| CC(C)S(=O)(=O)N(C)c1c2c(c(O)c3ncccc13)C(=O)N(Cc1ccc(F)cc1)C2 [Compound 54, N-(7-(4-fluorobenzyl)-9-hydroxy-8-oxo-7,8-dihydro-6H-pyrrolo[3,4-g]quinolin-5-yl)-N-methylpropane-2-sulfonamide] | 0.06 to 1 µM | < 0.06 µM |
| CN(c1c2c(c(O)c3ncccc13)C(=O)N(Cc1ccc(F)cn1)C2)S(C)(=O)=O [Compound 151, N-(7-((5-fluoropyridin-2-yl)methyl)-9-hydroxy-8-oxo-7,8-dihydro-6H-pyrrolo[3,4-g]quinolin-5-yl)-N-methylmethanesulfonamide] | 0.06 to 1 µM | 0.06 to 1 µM |
| CN(C)S(=O)(=O)N(C)c1c2c(c(O)c3ncccc13)C(=O)N(Cc1ccc(F)cc1)C2 [Compound 38, N-(7-(4-fluorobenzyl)-9-hydroxy-8-oxo-7,8-dihydro-6H-pyrrolo[3,4-g]quinolin-5-yl)-N,N′,N′-trimethylsulfamide] | 0.06 to 1 µM | < 0.06 µM |
| CN(c1c2c(c(O)c3ncccc13)C(=O)N(Cc1cc(Cl)ccc1F)C2)S(C)(=O)=O [Compound 211, N-(7-(5-chloro-2-fluorobenzyl)-9-hydroxy-8-oxo-7,8-dihydro-6H-pyrrolo[3,4-g]quinolin-5-yl)-N-methylmethanesulfonamide] | 0.06 to 1 µM | < 0.06 µM |
| CN(c1c2c(c(O)c3ncccc13)C(=O)N(Cc1ccc(F)cc1)C2)S(=O)(=O)c1cn(C)cn1 [Compound 56, N-(7-(4-fluorobenzyl)-9-hydroxy-8-oxo-7,8-dihydro-6H-pyrrolo[3,4-g]quinolin-5-yl)-N,1-dimethyl-1 H-imidazole-4-sulfonamide] | < 0.06 µM | < 0.06 µM |
| CN(c1c2c(c(O)c3ncccc13)C(=O)N(Cc1ccc(F)cc1Cl)C2)S(C)(=O)=O [Compound 147, N-(7-(2-chloro-4-fluorobenzyl)-9-hydroxy-8-oxo-7,8-dihydro-6H-pyrrolo[3,4-g]quinolin-5-yl)-N-methylmethanesulfonamide] | < 0.06 µM | < 0.06 µM |
| CN(c1c2c(c(O)c3ncccc13)C(=O)N(Cc1ccc(F)cc1)C2)S(=O)(=O)CCN1CCOCC1 [Compound 163, N-(7-(4-fluorobenzyl)-9-hydroxy-8-oxo-7,8-dihydro-6H-pyrrolo[3,4-g]quinolin-5-yl)-N-methyl-2-morpholinoethanesulfonamide] | < 0.06 µM | < 0.06 µM |
| Cc1nc(C)c(S(=O)(=O)N(C)c2c3c(c(O)c4ncccc24)C(=O)N(Cc2ccc(F)cc2)C3)s1 [Compound 58, N-(7-(4-fluorobenzyl)-9-hydroxy-8-oxo-7,8-dihydro-6H-pyrrolo[3,4-g]quinolin-5-yl)-N,2,4-trimethylthiazole-5-sulfonamide] | 0.06 to 1 µM | < 0.06 µM |
| CC(=O)Nc1nc(C)c(S(=O)(=O)N(C)c2c3c(c(O)c4ncccc24)C(=O)N(Cc2ccc(F)cc2)C3)s1 [Compound 160, N-(5-(N-(7-(4-fluorobenzyl)-9-hydroxy-8-oxo-7,8-dihydro-6H-pyrrolo[3,4-g]quinolin-5-yl)-N-methylsulfamoyl)-4-methylthiazol-2-yl)acetamide] | 0.06 to 1 µM | 0.06 to 1 µM |
| CN(c1c2c(c(O)c3ncccc13)C(=O)N(Cc1ccc(F)cc1)C2)S(=O)(=O)CCN1CCNCC1 [Compound 164, N-(7-(4-fluorobenzyl)-9-hydroxy-8-oxo-7,8-dihydro-6H-pyrrolo[3,4-g]quinolin-5-yl)-N-methyl-2-(piperazin-1-yl)ethanesulfonamide] | 0.06 to 1 µM | 0.06 to 1 µM |
| CN(c1c2c(c(O)c3ncccc13)C(=O)N(Cc1ccc(F)cc1)C2)S(=O)(=O)c1ccc(N2CCOCC2)nc1 [Compound 159, N-(7-(4-fluorobenzyl)-9-hydroxy-8-oxo-7,8-dihydro-6H-pyrrolo[3,4-g]quinolin-5-yl)-N-methyl-6-morpholinopyridine-3-sulfonamide] | 0.06 to 1 µM | 0.06 to 1 µM |
| C[C@H]1c2c(c(O)c3ncccc3c2N(C)S(C)(=O)=O)C(=O)N1Cc1ccc(F)cc1 (single isomer, unassigned) [Compound 75] | < 0.06 µM | < 0.06 µM |
